# Test results taken from US7943655B2, “Polymorphic and pseudopolymorphic forms of trandolaprilat, pharmaceutical compositions and methods for production and use” (Universitat Zurich, priority 2006, dated 2011).
# Values joined by “and” are separate entries in the source; they are usually repeats but may differ in a detail not shown here. Equal entries are not always repeated.
# Experiments:
# [1] = Storage stability of crystalline forms (decomposition to Trandolaprilat diketopiperazine, by HPLC); type: physicochemical; conditions: for Amount of Trandolaprilat Diketopiperazine after Isolation and Drying of the Wet Product: before storage; for Tendency to decompose to Trandolaprilat Diketopiperazine on storage (in words): comparison of crystalline forms, Table 9
# Procedure: Purity was determined by HPLC using a Luna C18 (150×4.6 mm, 3 μm; Manufacturer: Phenomenex, Torrence, Calif., USA) column, as well as a Symmetry C18(2) (150×4.6 mm, 3.5 μm; Manufacturer: Waters Corporation, Millford, Mass., USA) column using as mobile phase: Mobile phase A: 0.03% v/v of trifluoroacetic acid in water; Mobile phase B: 0.025% v/v of trifluoroacetic acid in acetonitrile; column temperature 30° C., flow rate: 1.5 ml/min, detection: UV 206 nm; eluent gradient: […]
# [2] = Solubility in n-butanol with and without water; type: physicochemical
# Source text: In step (f), an amount of water is removed from the solution of step (e) that is sufficient for inducing crystallization of the Trandolaprilat and provide crystalline Trandolaprilat in a polymorphic or pseudopolymorphic form. Because Trandolaprilat is not soluble in anhydrous n-butanol, its crystallization from the organic layer can be initiated by removing the water, for example, by concentrating an n-butanol/water solution containing the Trandolaprilat using azeotropic distillation (to provide crystalline Trandolaprilat).
# [3] = Degradation to Trandolaprilat diketopiperazine in non-hydroxylic solvent (THF solution); type: physicochemical
# Source text: Furthermore, crystallization and precipitation from non-hydroxylic solvents often provided a resin that could only be difficultly handled.
# [4] = target: Angiotensin Converting Enzyme (ACE enzyme) (Homo sapiens, UniProt P12821); conditions: compared with Trandolapril; cited from earlier work
# Angiotensin Converting Enzyme (ACE enzyme), sequence (P12821 30-1306, species assumed): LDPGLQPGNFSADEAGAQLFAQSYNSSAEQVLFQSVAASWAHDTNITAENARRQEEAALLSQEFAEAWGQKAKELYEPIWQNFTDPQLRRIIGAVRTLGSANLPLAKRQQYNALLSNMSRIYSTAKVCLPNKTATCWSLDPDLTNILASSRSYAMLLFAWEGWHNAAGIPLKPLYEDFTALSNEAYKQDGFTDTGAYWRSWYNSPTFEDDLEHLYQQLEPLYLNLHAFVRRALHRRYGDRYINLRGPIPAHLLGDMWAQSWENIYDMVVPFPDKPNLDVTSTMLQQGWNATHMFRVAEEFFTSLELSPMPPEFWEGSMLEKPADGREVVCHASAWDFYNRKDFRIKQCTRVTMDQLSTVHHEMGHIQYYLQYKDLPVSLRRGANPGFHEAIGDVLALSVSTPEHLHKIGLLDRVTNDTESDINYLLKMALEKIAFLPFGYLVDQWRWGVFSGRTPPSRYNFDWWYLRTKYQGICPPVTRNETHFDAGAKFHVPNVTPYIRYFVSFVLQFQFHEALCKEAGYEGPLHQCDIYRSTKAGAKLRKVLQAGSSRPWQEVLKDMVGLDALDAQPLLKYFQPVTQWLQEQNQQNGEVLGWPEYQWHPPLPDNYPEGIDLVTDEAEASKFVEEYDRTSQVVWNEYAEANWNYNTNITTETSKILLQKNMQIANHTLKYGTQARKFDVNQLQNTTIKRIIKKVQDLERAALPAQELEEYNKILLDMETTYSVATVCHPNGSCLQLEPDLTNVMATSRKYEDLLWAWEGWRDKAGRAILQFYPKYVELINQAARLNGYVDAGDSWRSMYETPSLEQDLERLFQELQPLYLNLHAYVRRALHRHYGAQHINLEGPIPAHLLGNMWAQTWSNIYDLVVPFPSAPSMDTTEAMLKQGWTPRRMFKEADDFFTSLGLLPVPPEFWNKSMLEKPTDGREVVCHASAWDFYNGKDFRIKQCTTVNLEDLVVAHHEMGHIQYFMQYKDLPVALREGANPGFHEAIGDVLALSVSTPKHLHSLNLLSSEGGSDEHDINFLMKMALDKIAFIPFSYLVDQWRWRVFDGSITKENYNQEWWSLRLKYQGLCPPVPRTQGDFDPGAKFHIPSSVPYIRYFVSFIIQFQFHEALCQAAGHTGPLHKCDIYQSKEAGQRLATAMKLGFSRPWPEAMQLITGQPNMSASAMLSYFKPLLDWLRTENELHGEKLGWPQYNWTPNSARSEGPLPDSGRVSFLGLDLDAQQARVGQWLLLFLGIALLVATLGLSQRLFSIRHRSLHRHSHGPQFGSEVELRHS
# [5] = storage temperature 20-25, storage time 4 months
smiles,measurement,setting,value
"C[C@H](N[C@@H](CCc1ccccc1)C(=O)O)C(=O)N1[C@H](C(=O)O)C[C@H]2CCCC[C@@H]21 [Form B, Trandolaprilat]",Amount of Trandolaprilat Diketopiperazine after Isolation and Drying of the Wet Product,[1],Not Detected
same,Tendency to decompose to Trandolaprilat Diketopiperazine on storage (in words),[1],significantly lower
same,Amount of Trandolaprilat Diketopiperazine after Storage,[1]; [5],0.20 % by HPLC
"C[C@H](N[C@@H](CCc1ccccc1)C(=O)O)C(=O)N1[C@H](C(=O)O)C[C@H]2CCCC[C@@H]21 [Form D, Trandolaprilat]",Amount of Trandolaprilat Diketopiperazine after Isolation and Drying of the Wet Product,[1],Not Detected
same,Tendency to decompose to Trandolaprilat Diketopiperazine on storage (in words),[1],only a very low quantity of the degradation product
same,Amount of Trandolaprilat Diketopiperazine after Storage,[1]; [5],0.03 % by HPLC
"C[C@H](N[C@@H](CCc1ccccc1)C(=O)O)C(=O)N1[C@H](C(=O)O)C[C@H]2CCCC[C@@H]21 [Form E, Trandolaprilat]",Amount of Trandolaprilat Diketopiperazine after Isolation and Drying of the Wet Product,[1],"0.34 %, by HPLC and 0.19 %, by HPLC"
same,Tendency to decompose to Trandolaprilat Diketopiperazine on storage (in words),[1],greater tendency to decompose
same,Amount of Trandolaprilat Diketopiperazine after Storage,"[1]; storage temperature 4-8, storage time 3 months",0.75 % by HPLC
same,Amount of Trandolaprilat Diketopiperazine after Storage,"[1]; storage temperature 20-25, storage time 3 months",0.92 % by HPLC
C[C@H](N[C@@H](CCc1ccccc1)C(=O)O)C(=O)N1[C@H](C(=O)O)C[C@H]2CCCC[C@@H]21 [Trandolaprilat],Solubility,[2]; anhydrous n-butanol,not soluble
same,Solubility,"[2]; free amino acid form, n-butanol saturated with water",soluble
same,Formation of degradation product Trandolaprilat diketopiperazine,[3]; THF solution heated at reflux temperature,almost complete within a few hours
same,Rate of degradation to Trandolaprilat diketopiperazine,"[3]; dissolved in THF, room temperature",at least 0.2 % per hour
same,Potency as an inhibitor of ACE activity relative to Trandolapril,[4],about eight times more potent than Trandolapril
"C[C@H](N[C@@H](CCc1ccccc1)C(=O)O)C(=O)N1[C@H](C(=O)O)C[C@H]2CCCC[C@@H]21 [Form C, Trandolaprilat]",Amount of Trandolaprilat Diketopiperazine after Isolation and Drying of the Wet Product,[1],Not Detected
same,Tendency to decompose to Trandolaprilat Diketopiperazine on storage (in words),[1],significantly lower
same,Amount of Trandolaprilat Diketopiperazine after Storage,[1]; [5],0.26 % by HPLC
"C[C@H](N[C@@H](CCc1ccccc1)C(=O)O)C(=O)N1[C@H](C(=O)O)C[C@H]2CCCC[C@@H]21 [Form A, Trandolaprilat]",Amount of Trandolaprilat Diketopiperazine after Isolation and Drying of the Wet Product,[1],Not Detected
same,Tendency to decompose to Trandolaprilat Diketopiperazine on storage (in words),[1],only a very low quantity of the degradation product
same,Amount of Trandolaprilat Diketopiperazine after Storage,[1]; [5],0.02 % by HPLC
